Columns and labels:
Type in all cases: cell-based, hepatitis B virus
HBV [1] = assay: Extracellular HBV DNA secreted by HBV baculovirus infected HepG2 cells (Southern blot, densitometry)
Protocol: (§1) (T). […] Relaxed circular (RC) and double-stranded (DS) forms of HBV DNA are indicated. […] (T). […] Replicative intermediates were analyzed by Southern blotting. Double-stranded (DS) and single-stranded (SS) forms of HBV genomic DNA are indicated.
One limitation of using stable cell lines, such as HepG2 2.2.15 cells, for evaluating the efficacy of an antiviral on HBV replication is that the magnitude of virus replication is at a static level predetermined by the number of integrated HBV genome copies. […] Cultures were fed fresh 3TC supplemented medium daily. After 3 days of treatment (4 days p.i.). DNA was extracted from the medium of treated and untreated control cultures and analyzed by Southern Blotting. Autoradiograms shown indicate different elngths of time of exposure of the blot to film: 1 hour (A), 2 hours (B), 4 hours (C), and 8 hours (D). Relaxed circular (RC) and double-stranded (DS) forms of HBV DNA are indicated. The largest reduction of extracellular HBV DNA (>99% reduction after six days of treatment) occurred in cells infected with 25 pfu of baculovirus, the lowest multiplicity tested. […] However, it is also important to note that even a 96% reduction in HBV replication still allowed high levels of HBV virions to be secreted from 3TC-treated cells which were replicating very high levels of HBV (i.e. cells infected with HBV baculovirus at a high moi).
(§2) HepG2 cells were seeded at approximately 20% to 40% confluency and then were grown for 16 to 24 hours before infection. On the day of infection, duplicate plates of cells were trypsinized, and viable cell number was determined with a hemocytometer using Trypan blue exclusion. Average cell counts were calculated and used to determine the volume of high-titer viral stock necessary to infect cells at the indicated moi. Baculovirus was diluted into MEM-FBS to achieve the appropriate moi using volumes of 1.0 and 0.25 mL to infect 100-mm and 35-mm dishes, respectively. Baculovirus was adsorbed to HepG2 cells for one hour at 37° C. with gentle rocking every 15 minutes to ensure that the inoculum was evenly distributed. The inoculum was then aspirated and HepG2 cells were washed two times with phosphate-buffered saline and refed MEM-FBS.
Conditioned medium was collected from HepG2 cells and subjected to centrifugation at 6,000 g for 5 minutes to I5- remove cellular debris. HBV particles were precipitated with 10% PEG 8000 and were concentrated by centrifugation at 12,000×g. Viral pellets were resuspended in 1 mL of MEM-FBS and divided into two aliquots. One set of aliquots was treated with 750 μg/mL Pronase for one hour and then with 500 mg/mL DNase 1 for one hour. Both sets of aliquots were then digested with Proteinase K, and extracted with phenol and chloroform. DNA was precipitated with 0.1 volume of 3 mol/L sodium acetate and 1 volume of isopropanol. Ten micrograms of transfer RNA was added as a carrier during precipitation. Pellets were resuspended in 25 μL of TE and digested with 0.5 mg/mL RNase for 1 hour. DNA was then analyzed by electrophoresis and Southern blotting.
(§3) 3TC was a gift of BioChem Therapeutic Inc. (Laval, Quebec, Canada). […] Medium containing 3TC was prepared daily as needed using fresh aliquots of 3TC.

HBV [2] = assay: as above; settings: 0.2 μM 3TC, 10 day treatment
HBV [3] = assay: Intracellular HBV replicative intermediates in HBV baculovirus infected HepG2 cells (Southern blot, densitometry); settings: 50 pfu/cell
Protocol: On the indicated days (3, 6, and 9 days of drug treatment) HBV replication in HepG2 cultures was assessed by examining extracellular HBV DNA and intracellular replicative intermediates.
as §1, §2
HBV core particles were isolated from the cytoplasmic fraction of HepG2 cells lysed in 0.5% Np40. Cytoplasmic extracts were adjusted to 10 mmol/L MgCl2 and unprotected DNA was removed by an incubation with 500 μg/mL DNasel for 1 hour at 37° C. Samples were then adjusted to 50 mmol/L ethylenediaminetetraacetic acid, 50 mmol/L Tris, 0.5% sodium dodecyl sulfate, and digested with 500 μg/mL. Proteinase K for 1.5 hours at 37° C. Following sequential phenol and chloroform extractions, nucleic acids were recovered by ethanol precipitation. Nucleic acids were resuspended in 50 μL TE (10 mmol/L Tris, 1 mmol/L ethylenediaminetetraacetic acid), normalized by OD260, and digested with 100 μg/mL RNase (Boehringer Mannheim, Indianapolis, Ind.) for one hour at 37° C. before analysis by electrophoresis and Southern blotting. A Molecular Dynamics (Sunnyvale, Calif.) 100A laser densitometer equipped with Quantity One software (Protein Databases Inc., Huntington Station, N.Y.) was used to analyze suitable exposures of Southern blots.
as §3

SMILES: Nc1ccn([C@@H]2CS[C@H](CO)O2)c(=O)n1 [3TC, (−)-2′-dideoxy-3′-thiacytidine]
- extracellular HBV DNA, % Untreated Control (HBV [1]; 0.02 μM 3TC, P (from 16 h prior to infection), day 4 p.i. (3 days treatment), 50 pfu/cell): 69.8 % Untreated Control
- extracellular HBV DNA, % Untreated Control (HBV [1]; 0.02 μM 3TC, P (from 16 h prior to infection), day 7 p.i. (6 days treatment), 50 pfu/cell): 60.6 % Untreated Control
- extracellular HBV DNA, % Untreated Control (HBV [1]; 0.02 μM 3TC, P (from 16 h prior to infection), day 10 p.i. (9 days treatment), 50 pfu/cell): 38.1 % Untreated Control
- extracellular HBV DNA, % Untreated Control (HBV [1]; 0.02 μM 3TC, T (from 24 h p.i.), day 4 p.i. (3 days treatment), 50 pfu/cell): 68.1 % Untreated Control
- extracellular HBV DNA, % Untreated Control (HBV [1]; 0.02 μM 3TC, T (from 24 h p.i.), day 7 p.i. (6 days treatment), 50 pfu/cell): 39.6 % Untreated Control
- extracellular HBV DNA, % Untreated Control (HBV [1]; 0.02 μM 3TC, T (from 24 h p.i.), day 10 p.i. (9 days treatment), 50 pfu/cell): 33.0 % Untreated Control
- reduction of extracellular HBV DNA (HBV [1]; 0.02 μM 3TC, nine day treatment, moi 50 pfu/cell): 67%
- reduction of HBV DNA in the medium (HBV [1]; 0.02 μM 3TC, three days of treatment, moi 50 pfu/cell): about 30%
- extracellular HBV DNA, % Untreated Control (HBV [1]; 0.2 μM 3TC from 24 h p.i., moi 25, day 4 p.i. (3 days treatment)): 4.8 % Untreated Control
- extracellular HBV DNA, % Untreated Control (HBV [1]; 0.2 μM 3TC from 24 h p.i., moi 25, day 7 p.i. (6 days treatment)): 0.5 % Untreated Control
- extracellular HBV DNA, % Untreated Control (HBV [1]; 0.2 μM 3TC from 24 h p.i., moi 50, day 4 p.i. (3 days treatment)): 13.9 % Untreated Control
- extracellular HBV DNA, % Untreated Control (HBV [1]; 0.2 μM 3TC from 24 h p.i., moi 50, day 7 p.i. (6 days treatment)): 3.5 % Untreated Control
- extracellular HBV DNA, % Untreated Control (HBV [1]; 0.2 μM 3TC from 24 h p.i., moi 100, day 4 p.i. (3 days treatment)): 27.2 % Untreated Control
- extracellular HBV DNA, % Untreated Control (HBV [1]; 0.2 μM 3TC from 24 h p.i., moi 100, day 7 p.i. (6 days treatment)): 3.4 % Untreated Control
- extracellular HBV DNA, % Untreated Control (HBV [1]; 0.2 μM 3TC from 24 h p.i., moi 200, day 4 p.i. (3 days treatment)): 20.7 % Untreated Control
- extracellular HBV DNA, % Untreated Control (HBV [1]; 0.2 μM 3TC from 24 h p.i., moi 200, day 7 p.i. (6 days treatment)): 2.2 % Untreated Control
- extracellular HBV DNA, % Untreated Control (HBV [1]; 0.2 μM 3TC from 24 h p.i., moi 400, day 4 p.i. (3 days treatment)): 18.7 % Untreated Control
- extracellular HBV DNA, % Untreated Control (HBV [1]; 0.2 μM 3TC from 24 h p.i., moi 400, day 7 p.i. (6 days treatment)): 4.7 % Untreated Control
- extracellular HBV DNA, % Untreated Control (HBV [1]; 0.2 μM 3TC, P (from 16 h prior to infection), day 4 p.i. (3 days treatment), 50 pfu/cell): 10.1 % Untreated Control
- extracellular HBV DNA, % Untreated Control (HBV [1]; 0.2 μM 3TC, P (from 16 h prior to infection), day 7 p.i. (6 days treatment), 50 pfu/cell): 2.4 % Untreated Control
- extracellular HBV DNA, % Untreated Control (HBV [1]; 0.2 μM 3TC, P (from 16 h prior to infection), day 10 p.i. (9 days treatment), 50 pfu/cell): 0.8 % Untreated Control
- extracellular HBV DNA, % Untreated Control (HBV [1]; 0.2 μM 3TC, T (from 24 h p.i.), day 4 p.i. (3 days treatment), 50 pfu/cell): 13.4 % Untreated Control
- extracellular HBV DNA, % Untreated Control (HBV [1]; 0.2 μM 3TC, T (from 24 h p.i.), day 7 p.i. (6 days treatment), 50 pfu/cell): 5.6 % Untreated Control
- extracellular HBV DNA, % Untreated Control (HBV [1]; 0.2 μM 3TC, T (from 24 h p.i.), day 10 p.i. (9 days treatment), 50 pfu/cell): 1.9 % Untreated Control
- reduction of extracellular HBV DNA (HBV [1]; 0.2 μM 3TC, six days of treatment, 25 pfu of baculovirus): > 99%
- average reduction of extracellular HBV DNA (HBV [1]; 0.2 μM 3TC, six days of treatment, multiplicities 50 to 400 pfu/cell): greater than 96%
- extracellular HBV DNA, % Untreated Control (HBV [1]; 2.0 μM 3TC, P (from 16 h prior to infection), day 4 p.i. (3 days treatment), 50 pfu/cell): 1.3 % Untreated Control
- extracellular HBV DNA, % Untreated Control (HBV [1]; 2.0 μM 3TC, P (from 16 h prior to infection), day 7 p.i. (6 days treatment), 50 pfu/cell): 1.2 % Untreated Control
- extracellular HBV DNA, % Untreated Control (HBV [1]; 2.0 μM 3TC, P (from 16 h prior to infection), day 10 p.i. (9 days treatment), 50 pfu/cell): 0.8 % Untreated Control
- extracellular HBV DNA, % Untreated Control (HBV [1]; 2.0 μM 3TC, T (from 24 h p.i.), day 4 p.i. (3 days treatment), 50 pfu/cell): 2.4 % Untreated Control
- extracellular HBV DNA, % Untreated Control (HBV [1]; 2.0 μM 3TC, T (from 24 h p.i.), day 7 p.i. (6 days treatment), 50 pfu/cell): 2.4 % Untreated Control
- extracellular HBV DNA, % Untreated Control (HBV [1]; 2.0 μM 3TC, T (from 24 h p.i.), day 10 p.i. (9 days treatment), 50 pfu/cell): 0.8 % Untreated Control
- reduction of extracellular HBV DNA (HBV [1]; 2.0 μM 3TC, nine days of treatment, moi 50 pfu/cell): more than 99%
- reduction in extracellular DNA (HBV [2]): ~98%
- intracellular HBV replicative intermediates, % Untreated Control (HBV [3]; 0.02 μM 3TC, P (from 16 h prior to infection), day 4 p.i. (3 days treatment)): 82.5 % Untreated Control
- intracellular HBV replicative intermediates, % Untreated Control (HBV [3]; 0.02 μM 3TC, P (from 16 h prior to infection), day 7 p.i. (6 days treatment)): 100 % Untreated Control
- intracellular HBV replicative intermediates, % Untreated Control (HBV [3]; 0.02 μM 3TC, P (from 16 h prior to infection), day 10 p.i. (9 days treatment)): 68.2 % Untreated Control
- intracellular HBV replicative intermediates, % Untreated Control (HBV [3]; 0.02 μM 3TC, T (from 24 h p.i.), day 4 p.i. (3 days treatment)): 57.4 % Untreated Control
- intracellular HBV replicative intermediates, % Untreated Control (HBV [3]; 0.02 μM 3TC, T (from 24 h p.i.), day 7 p.i. (6 days treatment)): 100 % Untreated Control
- intracellular HBV replicative intermediates, % Untreated Control (HBV [3]; 0.02 μM 3TC, T (from 24 h p.i.), day 10 p.i. (9 days treatment)): 59.6 % Untreated Control
- intracellular HBV replicative intermediates, % Untreated Control (HBV [3]; 0.2 μM 3TC, P (from 16 h prior to infection), day 4 p.i. (3 days treatment)): 41.7 % Untreated Control
- intracellular HBV replicative intermediates, % Untreated Control (HBV [3]; 0.2 μM 3TC, P (from 16 h prior to infection), day 7 p.i. (6 days treatment)): 20.0 % Untreated Control
- intracellular HBV replicative intermediates, % Untreated Control (HBV [3]; 0.2 μM 3TC, P (from 16 h prior to infection), day 10 p.i. (9 days treatment)): 6.5 % Untreated Control
- intracellular HBV replicative intermediates, % Untreated Control (HBV [3]; 0.2 μM 3TC, T (from 24 h p.i.), day 4 p.i. (3 days treatment)): 35.0 % Untreated Control
- intracellular HBV replicative intermediates, % Untreated Control (HBV [3]; 0.2 μM 3TC, T (from 24 h p.i.), day 7 p.i. (6 days treatment)): 16.7 % Untreated Control
- intracellular HBV replicative intermediates, % Untreated Control (HBV [3]; 0.2 μM 3TC, T (from 24 h p.i.), day 10 p.i. (9 days treatment)): 6.7 % Untreated Control
- intracellular HBV replicative intermediates, % Untreated Control (HBV [3]; 2.0 μM 3TC, P (from 16 h prior to infection), day 4 p.i. (3 days treatment)): 8.2 % Untreated Control
- intracellular HBV replicative intermediates, % Untreated Control (HBV [3]; 2.0 μM 3TC, P (from 16 h prior to infection), day 7 p.i. (6 days treatment)): 7.1 % Untreated Control
- intracellular HBV replicative intermediates, % Untreated Control (HBV [3]; 2.0 μM 3TC, P (from 16 h prior to infection), day 10 p.i. (9 days treatment)): 1.3 % Untreated Control
- intracellular HBV replicative intermediates, % Untreated Control (HBV [3]; 2.0 μM 3TC, T (from 24 h p.i.), day 4 p.i. (3 days treatment)): 12.1 % Untreated Control
- intracellular HBV replicative intermediates, % Untreated Control (HBV [3]; 2.0 μM 3TC, T (from 24 h p.i.), day 7 p.i. (6 days treatment)): 8.5 % Untreated Control
- intracellular HBV replicative intermediates, % Untreated Control (HBV [3]; 2.0 μM 3TC, T (from 24 h p.i.), day 10 p.i. (9 days treatment)): 2.1 % Untreated Control

From patent US6610471B1, “Methods and compositions to investigate infection by hepatitis B virus and agents to prevent and treat the infection” (priority 1998, dated 2003)
